# Assay results as given in US8785470B2, “Heterocyclic compounds and uses thereof” (Infinity Pharmaceuticals, Inc., priority 2011, dated 2014).
# Where two headings read alike, the source gives them in different places.
# How the values were obtained:
# PI3Kγ = target: T1, PI3Kγ (Homo sapiens, UniProt P48736); test: PI3-Kinase HTRF assay, PI3Kγ; format: biochemical; settings: bins Greater than 10 μM and Greater than 1 μM to 10 μM; 10 μM ATP, PIP2 at 10 μM
# T1 construct: purchased Millipore Corporation 14-558-K
# Excerpt: (§1) A PI3-Kinase HTRF® assay kit (cat No. 33-016) purchased from Millipore Corporation was used to screen compounds provided herein. This assay used specific, high affinity binding of the GRPI pleckstrin homology (PH) domain to PIP3, the product of a Class 1A or 1B PI3 Kinase acting on its physiological substrate PIP2. During the detection phase of the assay, a complex was generated between the GST-tagged PH domain and biotinylated short chain PIP3. The biotinylated PIP3 and the GST-tagged PH domain recruited fluorophores (Streptavidin-Allophycocyanin and Europium-labeled anti-GST respectively) to form the fluorescence resonance energy transfer (FRET) architecture, generating a stable time-resolved FRET signal. The FRET complex was disrupted in a competitive manner by non-biotinylated PIP3, a product formed in the PI3 Kinase assay.
# (§2) PI3 Kinase α, β, γ and δ activity was assayed using the PI3 Kinase HTRF® assay kit (catalogue No. 33-016) purchased from Millipore Corporation. Purified recombinant PI3Kα (catalogue No. 14-602-K), PI3Kβ (catalogue No. 14-603-K), PI3Kγ (catalogue No. 14-558-K) and PI3Kδ (catalogue No. 14-604-K) were obtained from Millipore Corporation. Purified recombinant PI3K enzyme was used to catalyze the phosphorylation of phosphatidylinositol 4,5-bisphosphate (PIP2 at 10 μM) to phosphatidylinositol 3,4,5-trisphosphate (PIP3) in the presence of 10 μM ATP. The assay was carried out in 384-well format and detected using a Perkin Elmer EnVision Xcite Multilabel Reader. Emission ratios were converted into percent inhibitions and imported into GraphPad Prism software. The concentration necessary to achieve inhibition of enzyme activity by 50% (IC50) was calculated using concentrations ranging from 20 μM to 0.1 nM (12-point curve). IC50 values were determined using a nonlinear regression model available in GraphPad Prism 5. […]
# [1] = tested on: phospho-AKT in RAJI cells (PI3Kδ); test: PI3Kδ selective assay, phospho-AKT in RAJI cells; format: cell-based; settings: RAJI cells stimulated with anti-human IgM; read-out: IC50 for phospho-AKT, RAJI cell model
# Excerpt: A compound's ability in selectively inhibiting PI3Kδ can be assessed using RAJI cells, i.e., B lymphocyte cells derived from lymphoma patients. Briefly, serum-starved RAJI cells are stimulated with anti-human IgM, thereby causing signaling through the B-cell receptors, as described in, for example, He et al., Leukemia Research (2009) 33: 798-802. B-cell receptor signaling is important for the activation, differentiation, and survival of B cells and certain B-cell derived cancers. Reduction of phospho-AKT is indicative of compounds that may inhibit B-cell proliferation and function in certain diseases. By monitoring the reduction of phospho-AKT in stimulated RAJI cells (using for example, phospho-AKT antibodies), a compound's potential efficacy in selectively inhibiting PI3Kδ can be assessed.
# [2] = tested on: phospho-AKT in RAW 264.7 cells (PI3Kγ); test: PI3Kγ selective assay, phospho-AKT in RAW 264.7 cells; format: cell-based; settings: Mus musculus, RAW264.7, stimulated with C5a, read-out: IC50 for phospho-AKT, RAW 264.7 cell model
# Excerpt: A compound's ability in selectively inhibiting PI3Kγ can be assessed using RAW264.7 macrophages. Briefly, serum-starved PAW264.7 cells are stimulated with a known GPCR agonist C5a. (See, e.g., Camps et al., Nature Medicine (2005) 11(9): 936-943). Cells can be treated with test compounds prior to, simultaneously with, or subsequent to the stimulation by C5a. RAW 264.7 cells respond to the complement component fragment C5a through activation of the C5a receptor, and the C5a receptor activates macrophages and induces cell migration. Test compounds' ability to inhibit C5a-mediated AKT phosphorylation is indicative of selective inhibition of PI3Kγ. Thus, by monitoring the reduction of phospho-AKT in stimulated RAW 264.7 cells (using for example, phospho-AKT antibodies), a compound's potential efficacy in selectively inhibiting PI3Kγ can be assessed.
# PI3Kδ = target: T2, PI3Kδ (Homo sapiens, UniProt O00329); test: PI3-Kinase HTRF assay, PI3Kδ; format: biochemical; settings: bins Greater than 10 μM and Greater than 1 μM to 10 μM; 10 μM ATP, PIP2 at 10 μM
# T2 construct: purchased Millipore Corporation 14-604-K
# Excerpt: as §1, §2
# Balb/c splenic B cells = test: B cell activation and proliferation assay; format: cell-based; settings: Mus musculus, Greater than 1 μM to 10 μM, read-out: B cell proliferation EC50
# Method in brief: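 Balb/c splenic B cells were isolated by Ficoll gradient and magnetic separation, plated at 50.000 cells/well in RPMI/10% FBS, and pre-incubated with compound for 30 min at 37° C (0.2% DMSO). Cells were stimulated for 72 h with a cocktail of 10 μg/ml LPS or 5 μg/ml anti-mouse IgM F(ab′)2 plus 2 ng/ml IL4. Alamar Blue fluorescence (560Ex/590Em) after 5 h gave IC50 or EC50.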
# PI3Kβ = target: T3, PI3Kβ (Homo sapiens, UniProt P42338); test: PI3-Kinase HTRF assay, PI3Kβ; format: biochemical; settings: bins Greater than 10 μM and Greater than 1 μM to 10 μM; 10 μM ATP, PIP2 at 10 μM
# T3 construct: purchased Millipore Corporation 14-603-K
# Method in brief: (§3)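 Purified recombinant human PI3Kα, β, γ or δ (0.25-0.3 μg/ml) preincubated 15 min at room temperature with compound (2% DMSO) and 10 μM PIP2, then reacted 1 h with 10 μM ATP. PIP3 product detected by competitive HTRF (GST-PH domain/biotin-PIP3); IC50 from 12-point curves, 20 μM to 0.1 nM, by nonlinear regression.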
# PI3Kα = target: T4, PI3Kα (Homo sapiens, UniProt P42336); test: PI3-Kinase HTRF assay, PI3Kα; format: biochemical; settings: bins Greater than 10 μM and Greater than 1 μM to 10 μM; 10 μM ATP, PIP2 at 10 μM; read-out: IC50 P13Kα
# T4 construct: purchased Millipore Corporation 14-602-K
# Method in brief: as §3
# [3] = ranges less than 100 nM and between 100 nM and 1 μM (given as 100-1000)
# T2 sequence (O00329 whole entry): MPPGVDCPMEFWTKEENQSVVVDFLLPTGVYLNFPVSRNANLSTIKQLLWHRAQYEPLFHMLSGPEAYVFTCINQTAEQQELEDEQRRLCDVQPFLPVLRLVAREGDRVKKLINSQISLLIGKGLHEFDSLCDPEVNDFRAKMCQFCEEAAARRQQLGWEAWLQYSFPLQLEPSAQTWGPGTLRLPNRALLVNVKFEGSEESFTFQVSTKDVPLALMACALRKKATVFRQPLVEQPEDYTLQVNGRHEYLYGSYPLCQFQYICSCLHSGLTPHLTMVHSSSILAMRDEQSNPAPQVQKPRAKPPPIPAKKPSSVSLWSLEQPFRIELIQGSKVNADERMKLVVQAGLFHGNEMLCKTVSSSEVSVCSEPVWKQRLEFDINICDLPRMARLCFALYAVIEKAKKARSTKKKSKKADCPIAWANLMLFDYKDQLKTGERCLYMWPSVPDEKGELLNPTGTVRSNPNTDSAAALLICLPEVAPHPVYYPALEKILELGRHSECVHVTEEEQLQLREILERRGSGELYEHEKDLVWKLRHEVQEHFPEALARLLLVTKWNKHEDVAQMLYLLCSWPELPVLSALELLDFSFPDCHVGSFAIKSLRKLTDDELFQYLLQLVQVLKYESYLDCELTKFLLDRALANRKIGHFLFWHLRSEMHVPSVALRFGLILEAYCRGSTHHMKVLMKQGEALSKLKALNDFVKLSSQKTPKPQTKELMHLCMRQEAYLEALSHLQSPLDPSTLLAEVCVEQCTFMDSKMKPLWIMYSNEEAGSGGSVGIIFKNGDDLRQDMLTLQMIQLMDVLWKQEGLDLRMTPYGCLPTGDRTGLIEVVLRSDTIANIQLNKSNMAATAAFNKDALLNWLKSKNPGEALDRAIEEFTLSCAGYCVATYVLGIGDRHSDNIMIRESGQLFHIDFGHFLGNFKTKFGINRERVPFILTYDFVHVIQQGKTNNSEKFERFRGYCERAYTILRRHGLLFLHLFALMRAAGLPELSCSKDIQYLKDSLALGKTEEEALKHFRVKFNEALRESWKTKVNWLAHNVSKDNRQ
# T2 sequence (P27986 whole entry partner): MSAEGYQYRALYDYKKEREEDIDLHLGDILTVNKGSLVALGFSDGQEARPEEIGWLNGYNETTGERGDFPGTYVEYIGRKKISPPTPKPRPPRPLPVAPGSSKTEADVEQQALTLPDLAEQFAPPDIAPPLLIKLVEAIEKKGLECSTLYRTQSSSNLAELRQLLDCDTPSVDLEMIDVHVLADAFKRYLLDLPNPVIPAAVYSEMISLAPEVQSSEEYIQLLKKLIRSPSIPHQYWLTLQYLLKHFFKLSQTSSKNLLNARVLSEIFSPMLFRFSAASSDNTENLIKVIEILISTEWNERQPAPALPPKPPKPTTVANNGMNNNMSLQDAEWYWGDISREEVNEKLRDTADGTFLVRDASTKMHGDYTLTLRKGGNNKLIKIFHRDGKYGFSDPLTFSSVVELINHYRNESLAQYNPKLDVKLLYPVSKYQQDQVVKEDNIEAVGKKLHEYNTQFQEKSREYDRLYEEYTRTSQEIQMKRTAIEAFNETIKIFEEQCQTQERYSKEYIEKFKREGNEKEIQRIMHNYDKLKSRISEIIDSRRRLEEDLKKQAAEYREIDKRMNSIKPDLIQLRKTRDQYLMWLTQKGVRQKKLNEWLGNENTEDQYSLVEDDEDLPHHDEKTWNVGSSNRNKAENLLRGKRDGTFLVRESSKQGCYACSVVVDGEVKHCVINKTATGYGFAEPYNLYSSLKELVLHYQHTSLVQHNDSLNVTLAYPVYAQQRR
# T4 sequence (P42336 whole entry): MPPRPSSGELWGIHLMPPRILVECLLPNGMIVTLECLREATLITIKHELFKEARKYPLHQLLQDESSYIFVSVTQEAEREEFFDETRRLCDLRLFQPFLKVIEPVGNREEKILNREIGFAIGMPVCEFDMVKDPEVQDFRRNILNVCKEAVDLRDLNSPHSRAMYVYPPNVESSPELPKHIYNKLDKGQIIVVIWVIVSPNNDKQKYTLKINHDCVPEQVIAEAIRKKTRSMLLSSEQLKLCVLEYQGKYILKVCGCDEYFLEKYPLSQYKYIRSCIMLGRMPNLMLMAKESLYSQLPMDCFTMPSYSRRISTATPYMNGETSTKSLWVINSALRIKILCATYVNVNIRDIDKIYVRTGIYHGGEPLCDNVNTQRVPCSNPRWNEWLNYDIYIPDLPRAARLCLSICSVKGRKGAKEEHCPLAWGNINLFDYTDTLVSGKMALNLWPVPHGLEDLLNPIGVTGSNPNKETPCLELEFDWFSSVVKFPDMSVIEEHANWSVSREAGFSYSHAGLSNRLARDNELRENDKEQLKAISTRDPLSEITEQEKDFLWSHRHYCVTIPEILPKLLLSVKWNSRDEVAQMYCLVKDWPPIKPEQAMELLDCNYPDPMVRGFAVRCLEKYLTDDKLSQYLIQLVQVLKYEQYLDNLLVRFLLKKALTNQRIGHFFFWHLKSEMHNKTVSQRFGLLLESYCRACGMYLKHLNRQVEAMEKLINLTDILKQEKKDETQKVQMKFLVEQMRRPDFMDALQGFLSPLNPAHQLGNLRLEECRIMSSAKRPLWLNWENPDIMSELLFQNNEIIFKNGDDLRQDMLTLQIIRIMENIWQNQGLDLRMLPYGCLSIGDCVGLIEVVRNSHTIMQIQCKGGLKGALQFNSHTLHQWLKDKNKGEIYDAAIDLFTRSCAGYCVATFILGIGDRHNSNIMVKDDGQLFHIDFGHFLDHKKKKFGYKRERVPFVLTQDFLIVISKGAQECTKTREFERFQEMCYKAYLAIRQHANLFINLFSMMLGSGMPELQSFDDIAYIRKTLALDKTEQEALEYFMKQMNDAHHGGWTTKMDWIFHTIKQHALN
# T4 sequence (P27986 whole entry partner): as the sequence (P27986 whole entry partner) above
# T3 sequence (P42338 whole entry): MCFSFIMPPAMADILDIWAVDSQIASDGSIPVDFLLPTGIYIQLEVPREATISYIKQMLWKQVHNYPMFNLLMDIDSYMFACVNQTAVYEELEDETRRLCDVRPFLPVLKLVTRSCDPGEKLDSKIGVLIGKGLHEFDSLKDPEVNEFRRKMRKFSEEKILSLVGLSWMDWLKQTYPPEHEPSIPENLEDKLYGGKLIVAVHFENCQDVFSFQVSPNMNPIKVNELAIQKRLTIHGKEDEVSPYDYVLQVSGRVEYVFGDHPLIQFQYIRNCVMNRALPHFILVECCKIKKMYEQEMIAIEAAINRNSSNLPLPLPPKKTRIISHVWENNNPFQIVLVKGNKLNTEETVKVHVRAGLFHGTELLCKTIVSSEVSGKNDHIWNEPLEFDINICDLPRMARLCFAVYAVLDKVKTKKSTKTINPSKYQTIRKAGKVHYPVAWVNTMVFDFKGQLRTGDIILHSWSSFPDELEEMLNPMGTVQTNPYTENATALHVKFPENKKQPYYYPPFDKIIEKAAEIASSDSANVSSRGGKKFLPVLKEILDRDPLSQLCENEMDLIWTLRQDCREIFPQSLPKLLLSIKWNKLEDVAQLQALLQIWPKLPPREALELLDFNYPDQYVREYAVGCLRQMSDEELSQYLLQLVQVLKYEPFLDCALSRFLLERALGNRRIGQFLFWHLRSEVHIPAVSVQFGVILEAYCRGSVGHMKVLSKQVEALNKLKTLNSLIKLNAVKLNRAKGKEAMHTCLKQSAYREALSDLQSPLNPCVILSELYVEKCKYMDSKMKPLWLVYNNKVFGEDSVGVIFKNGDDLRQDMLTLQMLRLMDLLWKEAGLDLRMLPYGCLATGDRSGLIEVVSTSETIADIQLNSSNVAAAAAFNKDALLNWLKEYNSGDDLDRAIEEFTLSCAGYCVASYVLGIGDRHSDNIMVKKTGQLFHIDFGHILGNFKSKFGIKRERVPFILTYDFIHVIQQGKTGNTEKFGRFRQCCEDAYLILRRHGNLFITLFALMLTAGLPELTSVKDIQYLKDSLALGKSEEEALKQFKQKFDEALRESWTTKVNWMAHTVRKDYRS
# T3 sequence (P27986 whole entry partner): as the sequence (P27986 whole entry partner) above
# T1 sequence (P48736 whole entry): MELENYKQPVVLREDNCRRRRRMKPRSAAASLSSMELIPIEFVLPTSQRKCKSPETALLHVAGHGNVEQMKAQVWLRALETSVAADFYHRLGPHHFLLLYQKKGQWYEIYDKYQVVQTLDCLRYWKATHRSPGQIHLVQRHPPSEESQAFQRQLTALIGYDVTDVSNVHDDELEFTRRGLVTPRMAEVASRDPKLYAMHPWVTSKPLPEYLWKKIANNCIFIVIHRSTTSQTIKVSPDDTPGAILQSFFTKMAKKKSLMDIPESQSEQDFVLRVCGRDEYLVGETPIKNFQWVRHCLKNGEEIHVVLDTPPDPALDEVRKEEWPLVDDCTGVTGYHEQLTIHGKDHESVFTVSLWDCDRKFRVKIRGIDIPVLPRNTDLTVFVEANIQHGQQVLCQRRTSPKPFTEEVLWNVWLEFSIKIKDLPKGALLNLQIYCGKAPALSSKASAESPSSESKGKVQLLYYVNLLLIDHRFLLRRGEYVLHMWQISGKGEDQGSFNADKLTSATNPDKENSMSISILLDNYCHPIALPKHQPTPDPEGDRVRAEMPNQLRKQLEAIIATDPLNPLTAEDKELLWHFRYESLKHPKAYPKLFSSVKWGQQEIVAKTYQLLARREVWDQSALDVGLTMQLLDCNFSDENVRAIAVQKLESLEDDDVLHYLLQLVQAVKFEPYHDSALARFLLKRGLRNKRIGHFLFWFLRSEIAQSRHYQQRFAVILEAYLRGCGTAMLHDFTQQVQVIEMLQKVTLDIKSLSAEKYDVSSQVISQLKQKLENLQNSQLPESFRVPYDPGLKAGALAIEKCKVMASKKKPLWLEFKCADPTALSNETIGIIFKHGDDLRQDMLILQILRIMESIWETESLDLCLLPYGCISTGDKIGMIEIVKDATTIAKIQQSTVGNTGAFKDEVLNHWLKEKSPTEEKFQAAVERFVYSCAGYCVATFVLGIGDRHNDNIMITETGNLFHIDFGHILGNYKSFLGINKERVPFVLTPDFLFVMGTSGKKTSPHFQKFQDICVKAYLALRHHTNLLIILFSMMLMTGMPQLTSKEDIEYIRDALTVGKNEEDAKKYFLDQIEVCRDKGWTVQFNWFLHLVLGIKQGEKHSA
Compound,IC50 (PI3Kγ) [µM],IC50 [1] [nM],IC50 (PI3Kδ) [µM],IC50 (PI3Kβ) [µM],"IC50 [2, 3] [nM]",other results
"C[C@H](Nc1nc(N)ncc1-c1ccccc1)c1cc2cccc(Cl)c2c(=O)n1-c1ccccc1 [Compound 82, (S)-3-(1-(2-amino-5-phenylpyrimidin-4-ylamino)ethyl)-8-chloro-2-phenylisoquinolin-1(2H)-one]",,,1 to 10,,,EC50 (Balb/c splenic B cells): 1 to 10 µM
C[C@H](Nc1nc(N)ncc1C#N)c1cc2cccc(-c3cncc(NS(C)(=O)=O)c3)c2c(=O)n1-c1ccccc1 [Compound 191],,< 100,1 to 10,1 to 10,,IC50 (PI3Kα): 1 to 10 µM; IC50 ([2]; range between 1 μM and 10 μM): 1000 to 10000 nM
C[C@H](Nc1nc(N)ncc1C#N)c1cc2cccc(Cl)c2c(=O)n1-c1c(F)cccc1F [Compound 279],,< 100,1 to 10,1 to 10,< 100,
C[C@H](Nc1nc(N)ncc1C#N)c1cc2cccc(-c3ccc(=O)n(C)c3)c2c(=O)n1-c1ccon1 [Compound 338],,< 100,1 to 10,1 to 10,,IC50 (PI3Kα): 1 to 10 µM; IC50 ([2]; range between 1 μM and 10 μM): 1000 to 10000 nM
C[C@H](Nc1nc(N)ncc1C#N)c1cc2cccc(Cl)c2c(=O)n1C1CC1 [Compound 104],,< 100,1 to 10,1 to 10,100 to 1000,
C[C@H](Nc1nc(N)ncc1NC(=O)c1ccccc1)c1cc2cccc(Cl)c2c(=O)n1-c1ccccc1 [Compound 175],1 to 10,,1 to 10,,,
"C[C@H](Nc1cc(N)ncn1)c1cc2cccc(Cl)c2c(=O)n1-c1ccccc1 [Compound 78, (S)-3-(1-(6-aminopyrimidin-4-ylamino)ethyl)-8-chloro-2-phenylisoquinolin-1(2H)-one]",1 to 10,,,,,
COc1ncc(-c2cccc3cc([C@H](C)Nc4nc(N)ncc4C#N)n(-c4ccon4)c(=O)c23)cn1 [Compound 333],1 to 10,< 100,,,,IC50 ([2]; range between 1 μM and 10 μM): 1000 to 10000 nM
"C[C@H](Nc1nc(Cl)ncc1[N+](=O)[O-])c1cc2cccc(Cl)c2c(=O)n1-c1ccccc1 [Compound 75, (S)-8-chloro-3-(1-(2-chloro-5-nitropyrimidin-4-ylamino)ethyl)-2-phenylisoquinolin-1(2H)-one]",1 to 10,,,,,
C[C@H](Nc1nc(N)ncc1C(=O)N1CCC1)c1cc2cccc(Cl)c2c(=O)n1-c1ccccc1 [Compound 433],,,1 to 10,,,
COc1cc(-n2c([C@H](C)Nc3nc(N)ncc3C#N)cc3cccc(Cl)c3c2=O)ccc1F [Compound 291],,< 100,1 to 10,1 to 10,< 100,
COc1ncc(-c2cccc3cc([C@H](C)Nc4ncnc(N)c4C#N)n(-c4ccon4)c(=O)c23)cn1 [Compound 337],1 to 10,< 100,,,,IC50 (PI3Kα): 1 to 10 µM; IC50 ([2]; range between 1 μM and 10 μM): 1000 to 10000 nM
COC(=O)c1cccc(-n2c([C@H](C)Nc3nc(N)ncc3C#N)cc3cccc(Cl)c3c2=O)c1 [Compound 316],1 to 10,< 100,,,< 100,IC50 (PI3Kα): 1 to 10 µM
C[C@H](Nc1nc(N)ncc1C#N)c1cc2cccc(Cl)c2c(=O)n1-c1ccc(C#N)cc1 [Compound 220],,,1 to 10,1 to 10,,
C[C@H](Nc1nc(N)ncc1-c1cccc(NS(C)(=O)=O)c1)c1cc2cccc(Cl)c2c(=O)n1-c1ccccc1 [Compound 399],,< 100,,1 to 10,< 100,IC50 (PI3Kα): 1 to 10 µM
C[C@H](Nc1nc(N)ncc1C#N)c1cc2cccc(Cl)c2c(=O)n1-c1ccc(F)c(F)c1 [Compound 270],,< 100,1 to 10,1 to 10,< 100,
CCOc1nc(-c2cnc(N)nc2N[C@@H](C)c2cc3cccc(-c4cnc(OC)nc4)c3c(=O)n2-c2ccccc2)cs1 [Compound 396],,< 100,,1 to 10,100 to 1000,IC50 (PI3Kα): 1 to 10 µM
CCN(C)C(=O)c1cnc(N)nc1N[C@@H](C)c1cc2cccc(-c3ccnc(OC)c3)c2c(=O)n1-c1ccccc1 [Compound 155],,,1 to 10,,,
C[C@H](Nc1nc(N)ncc1-c1cncc(S(C)(=O)=O)c1)c1cc2cccc(Cl)c2c(=O)n1-c1ccccc1 [Compound 401],,< 100,1 to 10,1 to 10,100 to 1000,IC50 (PI3Kα): 1 to 10 µM
Cc1ncc(-c2cccc3cc([C@H](C)Nc4nc(N)ncc4C#N)n(-c4ccon4)c(=O)c23)cn1 [Compound 334],1 to 10,< 100,,,,IC50 ([2]; range between 1 μM and 10 μM): 1000 to 10000 nM

# More lines, main results first:
IC50 (PI3Kγ) [µM],IC50 [1] [nM],IC50 (PI3Kδ) [µM],IC50 (PI3Kβ) [µM],"IC50 [2, 3] [nM]",Compound,other results
1 to 10,< 100,,,,C[C@H](Nc1ncnc(N)c1C#N)c1cc2cccc(Cl)c2c(C(=O)NC2CCOCC2)n1 [Compound 353],IC50 ([2]; range between 1 μM and 10 μM): 1000 to 10000 nM
1 to 10,,,,,CC(=O)Nc1cnc(N)nc1N[C@@H](C)c1cc2cccc(Cl)c2c(=O)n1-c1ccccc1 [Compound 173],
,,1 to 10,,,"C[C@H](Nc1nc(N)ncc1S(C)(=O)=O)c1cc2cccc(Cl)c2c(=O)n1-c1ccccc1 [Compound 85, (S)-3-(1-(2-amino-5-(methylsulfonyl)pyrimidin-4-ylamino)ethyl)-8-chloro-2-phenylisoquinolin-1(2H)-one]",
,,1 to 10,,,C[C@H](Nc1cc(Cl)ncc1C#N)c1cc2cccc(Cl)c2c(=O)n1-c1ccccc1 [Compound 429],
,< 100,1 to 10,1 to 10,,C[C@H](Nc1nc(N)ncc1-c1ccc(S(C)(=O)=O)nc1)c1cc2cccc(Cl)c2c(=O)n1-c1ccccc1 [Compound 402],IC50 ([2]; range between 1 μM and 10 μM): 1000 to 10000 nM
1 to 10,,1 to 10,,,COc1cc(-c2cccc3cc([C@H](C)Nc4nc(N)ncc4C(=O)N4CCOCC4)n(-c4ccccc4)c(=O)c23)ccn1 [Compound 119],
,,1 to 10,,,COc1cnc(-c2cccc3cc([C@H](C)Nc4nc(N)ncc4C#N)n(-c4ccccc4)c(=O)c23)nc1 [Compound 228],
,,1 to 10,,,COc1cccc2cc([C@H](C)Nc3nc(N)ncc3C#N)n(-c3ccccc3)c(=O)c12 [Compound 148],
,,1 to 10,,,COc1cc(-c2cccc3cc([C@H](C)Nc4nc(N)ncc4C(=O)N4CCC4)n(-c4ccccc4)c(=O)c23)ccn1 [Compound 154],
,< 100,,1 to 10,< 100,C[C@H](Nc1nc(N)ncc1-c1cccc(S(C)(=O)=O)c1)c1cc2cccc(Cl)c2c(=O)n1-c1ccccc1 [Compound 397],IC50 (PI3Kα): 1 to 10 µM
